{"source": "patent US20240307296A1", "about": "“SUBCUTANEOUS BIODEGRADABLE NALTREXONE IMPLANT AND ACCOMPANYING BEHAVIORAL PROGRAM FOR WEIGHT LOSS IN A PATIENT” (Biocorrx, priority 2017, published 2024)", "origin": "cited, not measured here", "tested_on": "fasting insulin levels", "conditions": "in vivo"}
{"molecule": "O=C1CC[C@@]2(O)[C@H]3Cc4ccc(O)c5c4[C@@]2(CCN3CC2CC2)[C@H]1O5", "note": "[Naltrexone, N-Cyclopropylmethylnoroxymorphone]", "values": [{"measurement": "Lowering of fasting insulin levels", "result": "up to 40%"}]}
